In patent publication US9125898B2, “Acetam derivatives for pain relief” (NEUROTUNE AG, priority 2008, dated 2015):

Test system: oxaliplatin induced hyperalgesia in the rat
Assay: Oxaliplatin induced hyperalgesia in the rat paw-pressure test
Format: in vivo
Settings: for Paw pressure, pre-test before all treatments: baseline, drug 100 mg/kg p.o.; for Paw pressure, 1a week - 30 min / Paw pressure, 2a week - 30 min / Paw pressure, 3a week - 30 min / Paw pressure, 3a week - 4 h / Paw pressure, 3a week - 8 h / Paw pressure, 3a week - 24 h: drug 100 mg/kg p.o. once daily
Method: Drugs: The following substance was used: NT-13317 (batch No. RR0011-184A1 supplied by Brane Discovery Srl, Gerenzano Italy). NT-13317 was dissolved in DMSO 20%, 10% glucose and administered at the dose of 10, 30 and 100 mg/kg p.o.
Gabapentin (Sigma) was dissolved in 1% CMC (carboxymethylcellulose-Sigma) and orally administered at 100 mg/kg, and dissolved in saline and i.v. administered at 3 mg/kg.
Oxaliplatin model: A peripheral neuropathy was induced in adult rats, by administration of oxaliplatin (Tocris), at 2.4 mg/kg i.p. in saline once a day on days 1, 2, 3, 4, 5, 8, 9, 10, 11, 12, 15, 16, 17, 18, 19 (cumulative dose 36 mg/kg) according to [1].
In the first experiment NT-13317 and gabapentin were given chronically at the dose 100 mg/kg po starting 3 days before oxaliplatin and every day for 5 days/week for 3 weeks.
A dose-response experiment was then performed with NT-13317 (10, 30 and 100 mg/kg po) using the same treatment schedule.
Paw pressure test: Paw mechanical sensitivity was determined using a Randall & Selitto apparatus exerting a force that increases at constant rate (32 g/s). The stimulus at which rats withdrawn the paw was evaluated before and at different times after treatment. Results represent the mean of mechanical thresholds expressed as grams. To avoid any possible damage to the animal paw the maximum applied force was fixed at 240 g.
Statistical analysis: All experimental results are given as the mean±S.E.M. An analysis of variance, ANOVA, followed by Fisher's protected least significant difference procedure for post hoc comparison, were used to verify significance between two means of behavioral results. Data were analyzed with the StatView software for the Macintosh (1992). P values≦0.05 were considered significant.

NCC1(CC(=O)O)CCCCC1 [GABAPENTIN, Gabapentin, reference compound]
Reduction of mechanical hyperalgesia over three weeks of treatment (in words) (100 mg/kg p.o. once daily, 5 days/week for 3 weeks): much lower effect only at the end of the third week
Pharmacodynamic profile at the end of the third week (gabapentin 100 mg/kg p.o.): sporadic, intermediate efficacy at 30 min
Paw pressure, pre-test before all treatments (oxaliplatin i.p. group): 61.1 ± 4.0 g
Paw pressure, 1a week - 30 min (oxaliplatin i.p.): 47.8 ± 5.6 g
Paw pressure, 2a week - 30 min (oxaliplatin i.p.): 49.0 ± 5.5 g
Paw pressure, 3a week - 30 min (oxaliplatin i.p.): 59.5 ± 5.5 g
Paw pressure, 3a week - 4 h (oxaliplatin i.p.): 55.6 ± 4.2 g
Paw pressure, 3a week - 8 h (oxaliplatin i.p.): 43.8 ± 6.1 g
Paw pressure, 3a week - 24 h (oxaliplatin i.p.): 42.2 ± 5.5 g
Paw pressure, pre-test before all treatments (vehicle i.p. (no oxaliplatin) group): 62.7 ± 3.9 g
Paw pressure, 1a week - 30 min (vehicle i.p. (no oxaliplatin)): 65.6 ± 4.9 g
Paw pressure, 2a week - 30 min (vehicle i.p. (no oxaliplatin)): 73.7 ± 5.2 g
Paw pressure, 3a week - 30 min (vehicle i.p. (no oxaliplatin)): 82.3 ± 5.2 g
Paw pressure, 3a week - 4 h (vehicle i.p. (no oxaliplatin)): 76.2 ± 4.8 g
Paw pressure, 3a week - 8 h (vehicle i.p. (no oxaliplatin)): 78.2 ± 5.6 g
Paw pressure, 3a week - 24 h (vehicle i.p. (no oxaliplatin)): 68.7 ± 5.9 g
